Earlier results, collected in patent publication US11123300B2, “Immediate release tablet of a benzothiophene compound” (Hexal AG, priority 2016, dated 2021).

Question: With O=c1ccc2ccc(OCCCCN3CCN(c4cccc5sccc45)CC3)cc2[nH]1 [brexpiprazole, 7-[4-[4-(1-Benzothiophen-4-yl)piperazin-1-yl]butoxy]quinolin-2(1H)-one] as the compound, how does the “solubility of brexpiprazole in water” value read?
Answer: Its value is 2.27 µg/mL.
